Publication PMC8626775, “Anti-schistosomal activities of quinoxaline-containing compounds: From hit identification to lead optimisation” (European Journal of Medicinal Chemistry, 2021)
Like-named read-outs stand apart in the source and are kept apart here.

Tests used:
S. mansoni schistosomula = S. mansoni schistosomula high-throughput phenotype and motility screen (Roboworm), 72 h; format: cell-based, Schistosoma mansoni
How it was run: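 Newly transformed schistosomula (S. mansoni PR-1, mechanically transformed cercariae), 120 per well, exposed to compounds at a single concentration or two-fold titrations for 72 h at 37 °C, 5% CO2.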

S. mansoni adult worms [1] = experiment: In vitro laid egg (IVLE) production by S. mansoni adult worm pairs, 72 h; format: cell-based, Schistosoma mansoni
Protocol: For the evaluation of anti-schistosomal activity on the adult stage of the parasite, 7-wk old worms were transferred into 48 well tissue culture plates (1–3 worm pairs/well, in duplicate). […] DMSO (0.5%) and praziquantel (10 μM in 0.5% DMSO) were also included as negative and positive control treatments. Treated adult worms were incubated for 72 h in a humidified environment containing 5% CO2 at 37 °C. Parasite motility after compound treatment was assessed by a digital image processing-based system (WormassayGP2), modified after Wormassay. Following compound-parasite co-incubation, eggs were collected, fixed in formalin (10% v/v formaldehyde) and enumerated aiming to collect further information on any compound-induced effects on parasite fecundity and IVLE production.

S. mansoni adult worms [2] = experiment: S. mansoni adult worm motility screen (WormassayGP2), 72 h; format: cell-based, Schistosoma mansoni
How it was run: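 Seven-week adult S. mansoni worms, perfused from infected mice, were exposed in duplicate (1–3 pairs/well) to […] compound in 0.5% DMSO for 72 h at 37 °C, 5% CO2. Motility was scored by image-based WormassayGP2, and eggs were counted afterwards.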

HepG2 cells = experiment: HepG2 MTT cytotoxicity assay; settings: for CC50: Table 2, MTT
Protocol: (§1) Initially the cells were handled under sterile conditions and grown at 37 °C in a humidified atmosphere containing 5% CO2. Cytotoxicity was evaluated by way of a 3-(4, 5- dimethylthiazol-2-yl)-2,5-diphenyl tetrazolium bromide (MTT) assay as previously described. The cells were counted in a dual chamber counting slide using the BIORAD TC-10 Automated cell counter, seeded in a 96-well plate (Fisher Scientific, Loughborough, UK) at a density of 2 × 10^4 cells/well and incubated in an atmosphere of 5% CO2 at 37 °C. […] The absorbance readings (at 570 nm) of the soluble formazan crystals were recorded using PolarStar Omega plate reader (BMG-Labtech). […] The latter was used to calculate the selectivity index (SI) of the compounds presented herein.

[3] = test system: Juvenile S. mansoni worms; experiment: S. mansoni juvenile worm screen (motility score, propidium iodide uptake), 72 h; format: cell-based, Schistosoma mansoni; settings: juvenile worms, positive controls at 15 μM, Fig. S4
Text: Mice (Mus musculus HsdOLa:TO - Tuck Ordinary; Envigo, UK) were used for the mammalian-specific propagation of the S. mansoni life cycle. Experimental animals were infected with 4000 or 180 S. mansoni cercariae/mouse and perfused three- or seven-weeks post-infection to obtain S. mansoni juvenile or adult worms, respectively. Preparation steps following perfusion have been described previously. Briefly, the parasite material was washed three times with pre-warmed adult worm media (DMEM (Gibco, Paisley, UK) supplemented with 10% (v/v) Fetal Calf Serum (FCS, Gibco, Paisley, UK), 1% (v/v) L-glutamine (Gibco, Paisley, UK) and an antibiotic mixture (150 Units/ml penicillin and 150 μg/ml streptomycin; Gibco, UK)) to remove residual host contamination and incubated in a humidified environment containing 5% CO2 at 37 °C for at least 1 h.
Juvenile worms were distributed in a 96-well tissue culture plate (n = 20–25 individuals/well) containing 200 μl/well. Compounds were added to each treatment well at a concentration range of 10–0.156 μM. Negative (1.25% DMSO) and positive (15 μM PZQ and 15 μM AUR in 1.25% DMSO) controls were also included in each drug screen. Treated juvenile worms were incubated for 72 h in a humidified environment containing 5% CO2 at 37 °C. Compound-induced phenotype and motility effects were quantified using an adapted version of the WHO-TDR scoring system (in summary: 0 = dead, 1 = movement of the suckers only and slight contraction of the body, 2 = movement at the anterior and posterior regions only, 3 = full body movement but sluggish and 4 = normal movement). Additionally, differential uptake of propidium iodide (PI, P1304MP, Sigma-Aldrich, UK) was used to quantify worm viability as previously described. In brief, after 15 min incubation with 2 μg/ml PI, the parasite cultures were imaged under both bright-field and fluorescent settings (PI detection, 562 and 624 excitation and emission wavelengths, respectively) using an ImageXpressXL high content imager (Molecular Devices, UK). Enumeration of PI positive and negative juvenile worms was manually performed across all parasites within the well and the percentage of PI positive parasite was calculated per well.

[4] = HepG2 MTT cytotoxicity assay; settings: human, HepG2 cells
Protocol: as §1

S. mansoni [5] = test system: S. mansoni; parameters: method as in PMID 24416463; settings: cited from earlier work
S. mansoni [6] = test system: S. mansoni; parameters: method as in PMID 24416463; settings: cited from earlier work; remark: listed apart in the source
[7] = Schistosoma mansoni, 72 h, Table 2, average of phenotype and motility EC50, 72 h, read-out: Activity on schistosomula (EC50, μM - 72 h) Average
[8] = Schistosoma mansoni, 72 h, Table 2, motility, 72 h, three replicate titrations (0.313–10 μM), read-out: Activity on schistosomula (EC50, μM - 72 h) M
[9] = Schistosoma mansoni, 72 h, Table 2, phenotype, 72 h, three replicate titrations (0.313–10 μM), read-out: Activity on schistosomula (EC50, μM - 72 h) P
[10] = Schistosoma mansoni, Table 2, 72 h, titrations 0.0095–5 μM, WormassayGP2, read-out: Activity on adult worms (EC50, μM - 72 h) Motility
[11] = Table 2, average of phenotype and motility EC50, 72 h, read-out: Activity on schistosomula (EC50, μM - 72 h) Average
[12] = Table 2, motility, 72 h, three replicate titrations (0.313–10 μM), read-out: Activity on schistosomula (EC50, μM - 72 h) M
[13] = Table 2, phenotype, 72 h, three replicate titrations (0.313–10 μM), read-out: Activity on schistosomula (EC50, μM - 72 h) P
[14] = Schistosoma mansoni, 72 h, Table 1, 72 h, two dose response titrations (0.313–10 μM), 95% CI in brackets, read-out: Activity on schistosomula (EC50, μM - 72 h) Motility
[15] = Schistosoma mansoni, 72 h, Table 1, 72 h, two dose response titrations (0.313–10 μM), 95% CI in brackets, read-out: Activity on schistosomula (EC50, μM - 72 h) Phenotype
[16] = Schistosoma mansoni, 72 h, Table 1, mean of phenotype and motility EC50, 72 h, read-out: Activity on schistosomula (EC50, μM - 72 h) Average

O=[N+]([O-])c1ccc2nc(Nc3cc(F)cc(C(F)(F)F)c3)c(Nc3cc(F)cc(C(F)(F)F)c3)nc2c1 [Compound 34, N2, N3-bis(3-fluoro-5-(trifluoromethyl)phenyl)-6-nitroquinoxaline-2,3-diamine]
EC50 (S. mansoni schistosomula; [7]): 0.4 µM
EC50 (S. mansoni schistosomula; [8]): 0.43 µM
EC50 (S. mansoni schistosomula; [9]): 0.37 µM
EC50 (S. mansoni schistosomula; Schistosoma mansoni, Table 4, Series A, read-out: Anti-schistosomal activity EC50 Schistosomula (μM) Motility): 0.43 µM
EC50 (S. mansoni schistosomula; Schistosoma mansoni, Table 4, Series A, read-out: Anti-schistosomal activity EC50 Schistosomula (μM) Phenotype): 0.37 µM
Effect on IVLE production compared with PZQ (S. mansoni adult worms [1]; 0.0024–10 μM): more potent than PZQ
EC50 (S. mansoni adult worms [2]; Schistosoma mansoni, Table 4, Series A, read-out: Anti-schistosomal activity EC50 Adult (nM) Motility): 6.47 nM
EC50 (S. mansoni adult worms [2]; [10]): 6.47 nM

CC(=O)OC[C@H]1O[C@@H]([S-])[C@H](OC(C)=O)[C@@H](OC(C)=O)[C@@H]1OC(C)=O.CCP(CC)CC.[Au+] [AUR, Auranofin, reference compound]
CC50 (HepG2 cells; read-out: HepG2 cells (CC50, μM) 24 h, 24 h co-incubation): 5.07 µM
CC50 (HepG2 cells; read-out: HepG2 cells (CC50, μM) 72 h, 72 h co-incubation): 2.94 µM
PI pos [3]: 0%
EC50 (S. mansoni schistosomula; Table 1, 72 h, two dose response titrations (0.313–10 μM), 95% CI in brackets, read-out: Activity on schistosomula (EC50, μM - 72 h) Motility): 0.45 µM
EC50 (S. mansoni schistosomula; Table 1, mean of phenotype and motility EC50, 72 h, read-out: Activity on schistosomula (EC50, μM - 72 h) Average): 0.41 µM
EC50 (S. mansoni schistosomula; [11]): 0.41 µM
EC50 (S. mansoni schistosomula; [12]): 0.45 µM
EC50 (S. mansoni schistosomula; [13]): 0.37 µM

O=[N+]([O-])c1ccc2nc(-c3ccc(F)cc3)c(-c3ccc(F)cc3)nc2c1 [Compound 21]
CC50 at 24 h [4]: 6000 to 20000 nM
EC50 (S. mansoni schistosomula; [14]): > 50 µM
EC50 (S. mansoni schistosomula; [15]): > 50 µM
Effect on phenotype and motility of S. mansoni schistosomula (S. mansoni schistosomula; primary tested concentrations 10 and 50 μM, 72 h): did not have any effect

O=C(C1CCCCC1)N1CC(=O)N2CCc3ccccc3C2C1 (stereo not drawn) [PZQ, praziquantel, reference compound]
Selectivity Index (SI) Adult worms (HepG2 cells; HepG2 CC50 versus adult worm EC50): 945.31
Selectivity Index (SI) Somula (HepG2 cells; HepG2 CC50 versus schistosomula EC50): 100.05
PI pos [3]: 100%
EC50 (S. mansoni schistosomula; [14]): 0.88 µM
EC50 (S. mansoni schistosomula; [15]): 1.14 µM
EC50 (S. mansoni schistosomula; [16]): 1.01 µM
EC50 (S. mansoni schistosomula; [7]): 1.01 µM
EC50 (S. mansoni schistosomula; [8]): 0.88 µM
EC50 (S. mansoni schistosomula; [9]): 1.14 µM
EC50 (S. mansoni adult worms [2]; [10]): 107 nM

O=[N+]([O-])c1ccc2nc(Nc3ccccc3)c(Nc3ccccc3)nc2c1 [Compound 19]
CC50 at 24 h [4]: 12600 nM
Activity on schistosomula in the primary screen at 10 μM (S. mansoni schistosomula; 72 h): retained activity
EC50 (S. mansoni schistosomula; [14]): 1.35 µM
EC50 (S. mansoni schistosomula; [15]): 1.89 µM
EC50 (S. mansoni schistosomula; [16]): 1.62 µM
EC50 (S. mansoni schistosomula; Schistosoma mansoni, Table 3, read-out: Anti-schistosomal activity EC50 (μM) Schistosomula Motility): 1.35 µM
EC50 (S. mansoni schistosomula; Schistosoma mansoni, Table 3, read-out: Anti-schistosomal activity EC50 (μM) Schistosomula Phenotype): 1.89 µM
Effect on adult worm motility at 3.15 μM (S. mansoni adult worms [2]; 3.15 μM, lowest concentration tested): complete cessation of worm mobility
Effect on adult worm motility at 12.5 and 6.25 μM (S. mansoni adult worms [2]; 12.5 and 6.25 μM): particularly active

c1ccc(/N=c2\sc3ccccc3s\c2=N\c2ccccc2)cc1 [Compound 1]
Activity on schistosomula in the primary screen at 10 μM (S. mansoni schistosomula; 72 h): hit
Activity on schistosomula in the primary screen at 50 μM (S. mansoni schistosomula; 50 μM, 72 h): hit
EC50 (S. mansoni schistosomula; [14]): 4.47 µM
EC50 (S. mansoni schistosomula; [15]): 4.72 µM
EC50 (S. mansoni schistosomula; [16]): 4.59 µM
EC50 (S. mansoni schistosomula; Schistosoma mansoni, Fig. S3, average schistosomula EC50, read-out: EC50 (Fig. S3, anti-schistosomula activity)): 4.41 µM
Concentration down to which activity on schistosomula was retained (S. mansoni schistosomula; dose-response titration, 72 h): 5 µM
Concentration up until which production of in vitro laid eggs (IVLEs) was significantly inhibited (S. mansoni adult worms [1]; titration 50–6.25 μM): 12.5 µM
Adult worm motility at 6.25 μM (S. mansoni adult worms [2]; 6.25 μM, 72 h): normal motility
Effect on adult male and female worm pairs at 50 and 25 μM (S. mansoni adult worms [2]; 50 and 25 μM, 72 h): lethal effect

N2, N3-bis(4-bromophenyl)quinoxaline-2,3-diamine [Compound 38, reference compound]
EC50 (S. mansoni schistosomula; 72 h, read-out: EC50 on schistosomula (bounds and ranges given)): > 2 µM
EC50 (S. mansoni schistosomula; [11]): 2.44 µM
EC50 (S. mansoni schistosomula; [12]): 1.21 µM
EC50 (S. mansoni schistosomula; [13]): 3.67 µM
EC50 (S. mansoni adult worms [2]; Table 2, 72 h, titrations 0.0095–5 μM, WormassayGP2, read-out: Activity on adult worms (EC50, μM - 72 h) Motility): 162 nM
In vitro activity on S. mansoni (S. mansoni [5]): sub micromolar range
Worm burden reduction (S. mansoni [6]; four per oral doses of 100 mg/kg, delivered every 4 h): 53.4%
Worm burden reduction (S. mansoni [6]; single per oral dose of 400 mg/kg): 40.8%
